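These data come from cells grown in 96-well plates and exposed to compound for 48 hours at five concentrations. The concentration for full growth arrest is given as TGI.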
Tests used:
Test in all cases: growth of human tumour cells (NCI), 48 h
DMS 114 small cell lung = system: DMS 114 small cell lung
KM12 colon = system: KM12 colon
KM20L2 colon = system: KM20L2 colon
786-0 renal = system: 786-0 renal
SNB-78 CNS = system: SNB-78 CNS
A549 NSCLC = system: A549 NSCLC
UACC-62 melanoma = system: UACC-62 melanoma
M19-MEL melanoma = system: M19-MEL melanoma
UACC-257 melanoma = system: UACC-257 melanoma
NCI-H23 lung = system: NCI-H23 lung
DLD-1 colon = system: DLD-1 colon
SK-MEL-5 melanoma = system: SK-MEL-5 melanoma
LXFL 529 NSCLC = system: LXFL 529 NSCLC
IGROV1 ovarian = system: IGROV1 ovarian
SW-620 colon = system: SW-620 colon
UO-31 renal = system: UO-31 renal
U251 CNS = system: U251 CNS
COLO 205 colon = system: COLO 205 colon
SF-295 CNS = system: SF-295 CNS
SK-OV-3 ovarian = system: SK-OV-3 ovarian
OVCAR-5 ovarian = system: OVCAR-5 ovarian
SF-268 CNS = system: SF-268 CNS
NCI-H226 lung = system: NCI-H226 lung
HOP-62 NSCLC = system: HOP-62 NSCLC
SNB-19 CNS = system: SNB-19 CNS
SR leukemia = system: SR leukemia
NCI-H460 lung = system: NCI-H460 lung
ACHN renal = system: ACHN renal
LOX IMVI melanoma = system: LOX IMVI melanoma
OVCAR-8 ovarian = system: OVCAR-8 ovarian
HT29 colon = system: HT29 colon
A498 renal = system: A498 renal
HCT-116 colon = system: HCT-116 colon
M14 melanoma = system: M14 melanoma
TK-10 renal = system: TK-10 renal
SF-539 CNS = system: SF-539 CNS
MALME-3M melanoma = system: MALME-3M melanoma
RXF-631 renal = system: RXF-631 renal
HCT-15 colon = system: HCT-15 colon
NCI-H522 lung = system: NCI-H522 lung
CAKI-1 renal = system: CAKI-1 renal
SK-MEL-2 melanoma = system: SK-MEL-2 melanoma
OVCAR-4 ovarian = system: OVCAR-4 ovarian
SN12C renal = system: SN12C renal
EKVX NSCLC = system: EKVX NSCLC
OVCAR-3 ovarian = system: OVCAR-3 ovarian
SK-MEL-28 melanoma = system: SK-MEL-28 melanoma
HL-60(TB) leukemia = system: HL-60(TB) leukemia
SNB-75 CNS = system: SNB-75 CNS
RXF 393 renal = system: RXF 393 renal
CCRF-CEM leukemia = system: CCRF-CEM leukemia
K-562 leukemia = system: K-562 leukemia
HOP-18 NSCLC = system: HOP-18 NSCLC
HOP-92 NSCLC = system: HOP-92 NSCLC
MOLT-4 leukemia = system: MOLT-4 leukemia
DMS 273 small cell lung = system: DMS 273 small cell lung
HCC-2998 colon = system: HCC-2998 colon
XF 498 CNS = system: XF 498 CNS
RPMI-8226 leukemia = system: RPMI-8226 leukemia

Measured: TGI

O=C1/C=C(/c2ccc(O)cc2)[C@@H](O)Cc2ccc(O)cc2O1
89.6 µM: NCI-H226 lung
> 100 µM: DMS 114 small cell lung | KM12 colon | KM20L2 colon | 786-0 renal | SNB-78 CNS | A549 NSCLC | UACC-62 melanoma | M19-MEL melanoma | UACC-257 melanoma | NCI-H23 lung | DLD-1 colon | SK-MEL-5 melanoma | LXFL 529 NSCLC | IGROV1 ovarian | SW-620 colon | UO-31 renal | U251 CNS | COLO 205 colon | SF-295 CNS | SK-OV-3 ovarian | OVCAR-5 ovarian | SF-268 CNS | HOP-62 NSCLC | SNB-19 CNS | SR leukemia | NCI-H460 lung | ACHN renal | LOX IMVI melanoma | OVCAR-8 ovarian | HT29 colon | HCT-116 colon | M14 melanoma | TK-10 renal | SF-539 CNS | MALME-3M melanoma | RXF-631 renal | HCT-15 colon | NCI-H522 lung | CAKI-1 renal | SK-MEL-2 melanoma | OVCAR-4 ovarian | SN12C renal | EKVX NSCLC | OVCAR-3 ovarian
86.4 µM: A498 renal

O=C(O)c1ccc(C2=Cc3cc(Cl)ccc3OC2)cc1
> 100 µM: DMS 114 small cell lung | KM12 colon | KM20L2 colon | 786-0 renal | SNB-78 CNS | A549 NSCLC | UACC-62 melanoma | M19-MEL melanoma | UACC-257 melanoma | NCI-H23 lung | SK-MEL-28 melanoma | HL-60(TB) leukemia | DLD-1 colon | SK-MEL-5 melanoma | LXFL 529 NSCLC | IGROV1 ovarian | SW-620 colon | UO-31 renal | SNB-75 CNS | RXF 393 renal | U251 CNS | COLO 205 colon | SF-295 CNS | SK-OV-3 ovarian | OVCAR-5 ovarian | SF-268 CNS | CCRF-CEM leukemia | NCI-H226 lung | HOP-62 NSCLC | K-562 leukemia | SNB-19 CNS | HOP-18 NSCLC | HOP-92 NSCLC | MOLT-4 leukemia | SR leukemia | NCI-H460 lung | ACHN renal | LOX IMVI melanoma | OVCAR-8 ovarian | HT29 colon | A498 renal | HCT-116 colon | M14 melanoma | DMS 273 small cell lung | TK-10 renal | HCC-2998 colon | XF 498 CNS | SF-539 CNS | MALME-3M melanoma | HCT-15 colon | NCI-H522 lung | CAKI-1 renal | SK-MEL-2 melanoma | RPMI-8226 leukemia | SN12C renal | EKVX NSCLC | OVCAR-3 ovarian

COC(=O)N/N=C(\C)c1c(O)cc(C)oc1=O
45.5 µM: LXFL 529 NSCLC
44.5 µM: LOX IMVI melanoma
97.7 µM: K-562 leukemia
> 100 µM: KM12 colon | KM20L2 colon | 786-0 renal | SNB-78 CNS | A549 NSCLC | UACC-62 melanoma | UACC-257 melanoma | NCI-H23 lung | SK-MEL-28 melanoma | HL-60(TB) leukemia | DLD-1 colon | SK-MEL-5 melanoma | IGROV1 ovarian | SW-620 colon | UO-31 renal | SNB-75 CNS | U251 CNS | SF-295 CNS | SK-OV-3 ovarian | SF-268 CNS | CCRF-CEM leukemia | NCI-H226 lung | HOP-62 NSCLC | SNB-19 CNS | HOP-92 NSCLC | MOLT-4 leukemia | SR leukemia | NCI-H460 lung | ACHN renal | OVCAR-8 ovarian | HT29 colon | A498 renal | HCT-116 colon | M14 melanoma | TK-10 renal | HCC-2998 colon | MALME-3M melanoma | RXF-631 renal | HCT-15 colon | SK-MEL-2 melanoma | OVCAR-4 ovarian | SN12C renal | EKVX NSCLC
58 µM: SF-539 CNS

NC1=NS(=O)(=O)Nc2nc(-c3ccccc3)[nH]c21
> 100 µM: DMS 114 small cell lung | KM12 colon | KM20L2 colon | 786-0 renal | SNB-78 CNS | A549 NSCLC | UACC-62 melanoma | M19-MEL melanoma | UACC-257 melanoma | NCI-H23 lung | SK-MEL-28 melanoma | HL-60(TB) leukemia | DLD-1 colon | SK-MEL-5 melanoma | LXFL 529 NSCLC | IGROV1 ovarian | SW-620 colon | UO-31 renal | SNB-75 CNS | RXF 393 renal | U251 CNS | COLO 205 colon | SF-295 CNS | SK-OV-3 ovarian | OVCAR-5 ovarian | SF-268 CNS | CCRF-CEM leukemia | NCI-H226 lung | K-562 leukemia | SNB-19 CNS | HOP-18 NSCLC | HOP-92 NSCLC | MOLT-4 leukemia | SR leukemia | NCI-H460 lung | ACHN renal | LOX IMVI melanoma | OVCAR-8 ovarian | HT29 colon | HCT-116 colon | M14 melanoma | DMS 273 small cell lung | TK-10 renal | HCC-2998 colon | XF 498 CNS | SF-539 CNS | MALME-3M melanoma | HCT-15 colon | NCI-H522 lung | SK-MEL-2 melanoma | OVCAR-4 ovarian | RPMI-8226 leukemia | SN12C renal | EKVX NSCLC | OVCAR-3 ovarian

Source: PubChem BioAssay (NCI)
